Measured values: US10428083B2, “Heterocyclylmethyl-thienouracile as antagonists of the adenosine-A2B-receptor” (BAYER PHARMA AKTIENGESELLSCHAFT, priority 2015, dated 2019)

target: human adenosine A2b receptor (Homo sapiens (Human), UniProt P29275); assay: Cellular in vitro reporter gene test for A2b receptor activity (CHO-K1, CRE-luciferase, NECA stimulation); type: cell-based; details: recombinant CHO-K1 cell line, CRE-luciferase reporter, antagonism of EC50 concentration of NECA; in some cases means of several determinations, rounded to two significant figures; read-out: A2b receptor IC50
Procedure, shortened: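 CHO-K1 cells with CRE-driven luciferase; antagonists co-incubated with NECA at its EC50, determined in a pre-experiment on each test day. Luciferase read by luminescence 3 h after NECA addition.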

human adenosine A2b receptor, sequence (P29275 whole entry): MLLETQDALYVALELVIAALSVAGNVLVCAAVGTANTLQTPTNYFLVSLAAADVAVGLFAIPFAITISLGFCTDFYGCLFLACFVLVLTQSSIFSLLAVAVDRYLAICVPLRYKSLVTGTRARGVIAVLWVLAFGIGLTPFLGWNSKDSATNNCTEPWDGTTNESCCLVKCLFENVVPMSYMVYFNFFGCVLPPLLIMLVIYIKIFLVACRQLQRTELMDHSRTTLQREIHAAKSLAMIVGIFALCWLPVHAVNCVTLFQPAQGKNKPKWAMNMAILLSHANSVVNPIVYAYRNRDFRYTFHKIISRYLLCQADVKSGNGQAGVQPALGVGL

IC50 [nM] | Structure (SMILES)
5.6 | Cc1c(CN2CCNC2=S)sc2c1c(=O)n(CC(F)(F)F)c(=O)n2CC1CCCO1 (single isomer, unassigned) [Example 299, 5-Methyl-1-(tetrahydrofuran-2-ylmethyl)-6-[(2-thioxoimidazolidin-1-yl)methyl]-3-(2,2,2-trifluoroethyl)thieno[2,3-d]pyrimidine-2,4(1H,3H)-dione]
14 | Cc1c(CN2CCNC2=S)sc2c1c(=O)n(CC(F)(F)F)c(=O)n2CC1CCCO1 (single isomer, unassigned) [Example 300, 5-Methyl-1-(tetrahydrofuran-2-ylmethyl)-6-[(2-thioxoimidazolidin-1-yl)methyl]-3-(2,2,2-trifluoroethyl)thieno[2,3-d]pyrimidine-2,4(1H,3H)-dione]
110 | COCCn1c(=O)c2c(C)c(CN3CCNC3=O)sc2n(CC2CCCO2)c1=O (single isomer, unassigned) [Example 324, 3-(2-Methoxyethyl)-5-methyl-6-[(2-oxoimidazolidin-1-yl)methyl]-1-(tetrahydrofuran-2-ylmethyl)thieno[2,3-d]pyrimidine-2,4(1H,3H)-dione]
65 | COCCn1c(=O)c2c(C)c(CN3CCNC3=O)sc2n(CC2CCCO2)c1=O (single isomer, unassigned) [Example 325, 3-(2-Methoxyethyl)-5-methyl-6-[(2-oxoimidazolidin-1-yl)methyl]-1-(tetrahydrofuran-2-ylmethyl)thieno[2,3-d]pyrimidine-2,4(1H,3H)-dione]
220 | COCCn1c(=O)n(C(C)COC)c(=O)c2c(C)c(CN3CCNC3=O)sc21 (single isomer, unassigned) [Example 330, 1-(2-Methoxyethyl)-3-(1-methoxypropan-2-yl)-5-methyl-6-[(2-oxoimidazolidin-1-yl)methyl]thieno[2,3-d]pyrimidine-2,4(1H,3H)-dione]
61 | COCCn1c(=O)n(C(C)COC)c(=O)c2c(C)c(CN3CCNC3=O)sc21 (single isomer, unassigned) [Example 331, 1-(2-Methoxyethyl)-3-(1-methoxypropan-2-yl)-5-methyl-6-[(2-oxoimidazolidin-1-yl)methyl]thieno[2,3-d]pyrimidine-2,4(1H,3H)-dione]
110 | COCCn1c(=O)n(CC2CCCO2)c(=O)c2c(C)c(CN3CCNC3=O)sc21 (single isomer, unassigned) [Example 333, 1-(2-Methoxyethyl)-5-methyl-6-[(2-oxoimidazolidin-1-yl)methyl]-3-(tetrahydrofuran-2-ylmethyl)thieno[2,3-d]pyrimidine-2,4(1H,3H)-dione]
120 | COCCn1c(=O)n(CC2CCCO2)c(=O)c2c(C)c(CN3CCNC3=O)sc21 (single isomer, unassigned) [Example 334, 1-(2-Methoxyethyl)-5-methyl-6-[(2-oxoimidazolidin-1-yl)methyl]-3-(tetrahydrofuran-2-ylmethyl)thieno[2,3-d]pyrimidine-2,4(1H,3H)-dione]
13 | Cc1c(Cn2cc[nH]c2=O)sc2c1c(=O)n(CC(F)(F)F)c(=O)n2CC1CCCO1 (single isomer, unassigned) [Example 342, 5-Methyl-6-[(2-oxo-2,3-dihydro-1H-imidazol-1-yl)methyl]-1-(tetrahydrofuran-2-ylmethyl)-3-(2,2,2-trifluoroethyl)thieno[2,3-d]pyrimidine-2,4(1H,3H)-dione]
25 | Cc1c(Cn2cc[nH]c2=O)sc2c1c(=O)n(CC(F)(F)F)c(=O)n2CC1CCCO1 (single isomer, unassigned) [Example 343, 5-Methyl-6-[(2-oxo-2,3-dihydro-1H-imidazol-1-yl)methyl]-1-(tetrahydrofuran-2-ylmethyl)-3-(2,2,2-trifluoroethyl)thieno[2,3-d]pyrimidine-2,4(1H,3H)-dione]
56 | COCCn1c(=O)c2c(C)c(Cn3cc[nH]c3=O)sc2n(CC2CCCO2)c1=O (single isomer, unassigned) [Example 347, 3-(2-Methoxyethyl)-5-methyl-6-[(2-oxo-2,3-dihydro-1H-imidazol-1-yl)methyl]-1-(tetrahydrofuran-2-ylmethyl)thieno[2,3-d]pyrimidine-2,4(1H,3H)-dione]
48 | COCCn1c(=O)c2c(C)c(Cn3cc[nH]c3=O)sc2n(CC2CCCO2)c1=O (single isomer, unassigned) [Example 348, 3-(2-Methoxyethyl)-5-methyl-6-[(2-oxo-2,3-dihydro-1H-imidazol-1-yl)methyl]-1-(tetrahydrofuran-2-ylmethyl)thieno[2,3-d]pyrimidine-2,4(1H,3H)-dione]
5.1 | Cc1c(CN2CCNC2=NC#N)sc2c1c(=O)n(C(C)C)c(=O)n2CC1CCCO1 (single isomer, unassigned) [Example 356, [1-{[3-Isopropyl-5-methyl-2,4-dioxo-1-(tetrahydrofuran-2-ylmethyl)-1,2,3,4-tetrahydrothieno[2,3-d]pyrimidin-6-yl]methyl}imidazolidin-2-ylidene]cyanamide]
32 | Cc1c(CN2CCNC2=NC#N)sc2c1c(=O)n(C(C)C)c(=O)n2CC1CCCO1 (single isomer, unassigned) [Example 357, [1-{[3-Isopropyl-5-methyl-2,4-dioxo-1-(tetrahydrofuran-2-ylmethyl)-1,2,3,4-tetrahydrothieno[2,3-d]pyrimidin-6-yl]methyl}imidazolidin-2-ylidene]cyanamide]
10 | Cc1c(CN2CCNC2=NC#N)sc2c1c(=O)n(CC(F)(F)F)c(=O)n2CC1CCCO1 (single isomer, unassigned) [Example 360, [1-{[5-Methyl-2,4-dioxo-1-(tetrahydrofuran-2-ylmethyl)-3-(2,2,2-trifluoroethyl)-1,2,3,4-tetrahydrothieno[2,3-d]pyrimidin-6-yl]methyl}imidazolidin-2-ylidene]cyanamide]
13 | Cc1c(CN2CCNC2=NC#N)sc2c1c(=O)n(CC(F)(F)F)c(=O)n2CC1CCCO1 (single isomer, unassigned) [Example 361, [1-{[5-Methyl-2,4-dioxo-1-(tetrahydrofuran-2-ylmethyl)-3-(2,2,2-trifluoroethyl)-1,2,3,4-tetrahydrothieno[2,3-d]pyrimidin-6-yl]methyl}imidazolidin-2-ylidene]cyanamide]
110 | COCCn1c(=O)c2c(C)c(CN3CCNC3=NC#N)sc2n(CC2CCO2)c1=O (single isomer, unassigned) [Example 365, [1-{[3-Methoxyethyl-5-methyl-1-(oxetan-2-ylmethyl)-2,4-dioxo-1,2,3,4-tetrahydrothieno[2,3-d]pyrimidin-6-yl]methyl}imidazolidin-2-ylidene]cyanamide]
40 | COCCn1c(=O)c2c(C)c(CN3CCNC3=NC#N)sc2n(CC2CCO2)c1=O (single isomer, unassigned) [Example 366, [1-{[3-Methoxyethyl-5-methyl-1-(oxetan-2-ylmethyl)-2,4-dioxo-1,2,3,4-tetrahydrothieno[2,3-d]pyrimidin-6-yl]methyl}imidazolidin-2-ylidene]cyanamide]
82 | COCCn1c(=O)c2c(C)c(CN3CCNC3=NC#N)sc2n(CC2CCCO2)c1=O (single isomer, unassigned) [Example 368, [1-{[3-(2-Methoxyethyl)-5-methyl-2,4-dioxo-1-(tetrahydrofuran-2-ylmethyl)-1,2,3,4-tetrahydrothieno[2,3-d]pyrimidin-6-yl]methyl}imidazolidin-2-ylidene]cyanamide]
33 | COCCn1c(=O)c2c(C)c(CN3CCNC3=NC#N)sc2n(CC2CCCO2)c1=O (single isomer, unassigned) [Example 369, [1-{[3-(2-Methoxyethyl)-5-methyl-2,4-dioxo-1-(tetrahydrofuran-2-ylmethyl)-1,2,3,4-tetrahydrothieno[2,3-d]pyrimidin-6-yl]methyl}imidazolidin-2-ylidene]cyanamide]
27 | CCn1c(=O)c2c(C)c(CN3CCNC3=NC(=O)OC)sc2n(CC2CCO2)c1=O (single isomer, unassigned) [Example 372, Methyl [1-{[3-ethyl-5-methyl-1-(oxetan-2-ylmethyl)-2,4-dioxo-1,2,3,4-tetrahydrothieno[2,3-d]pyrimidin-6-yl]methyl}imidazolidin-2-ylidene]carbamate]
5.9 | CCn1c(=O)c2c(C)c(CN3CCNC3=NC(=O)OC)sc2n(CC2CCO2)c1=O (single isomer, unassigned) [Example 373, Methyl [1-{[3-ethyl-5-methyl-1-(oxetan-2-ylmethyl)-2,4-dioxo-1,2,3,4-tetrahydrothieno[2,3-d]pyrimidin-6-yl]methyl}imidazolidin-2-ylidene]carbamate]
6.3 | CCn1c(=O)c2c(C)c(CN3CCNC3=NC(=O)OC)sc2n(CC2CCCO2)c1=O (single isomer, unassigned) [Example 375, Methyl [1-{[3-ethyl-5-methyl-2,4-dioxo-1-(tetrahydrofuran-2-ylmethyl)-1,2,3,4-tetrahydrothieno[2,3-d]pyrimidin-6-yl]methyl}imidazolidin-2-ylidene]carbamate]
7.9 | CCn1c(=O)c2c(C)c(CN3CCNC3=NC(=O)OC)sc2n(CC2CCCO2)c1=O (single isomer, unassigned) [Example 376, Methyl [1-{[3-ethyl-5-methyl-2,4-dioxo-1-(tetrahydrofuran-2-ylmethyl)-1,2,3,4-tetrahydrothieno[2,3-d]pyrimidin-6-yl]methyl}imidazolidin-2-ylidene]carbamate]
33 | COCCn1c(=O)c2c(C)c(CN3CCNC3=NC(=O)OC)sc2n(CC2CCO2)c1=O (single isomer, unassigned) [Example 388, Methyl [1-{[3-(2-methoxyethyl)-5-methyl-1-(oxetan-2-ylmethyl)-2,4-dioxo-1,2,3,4-tetrahydrothieno[2,3-d]pyrimidin-6-yl]methyl}imidazolidin-2-ylidene]carbamate]
